BindingDB's records for doi:10.1021/jm00061a004 (1993)

Legend:
Cytochrome P450 2D6 [1] = biological target: T1, Cytochrome P450 2D6 (Homo sapiens, UniProt P10635); experiment: Inhibition of partially purified cytochrome P450 2D6 1'-hydroxybufuralol formation
Cytochrome P450 2D6 [2] = biological target: T1, Cytochrome P450 2D6; experiment: Inhibitory constant for cytochrome P450 2D6
CYP2D6 = CYP2D6 (Homo sapiens, UniProt P10635); experiment: Apparent inhibitory constant (Ki) for Bufuralol 1'-hydroxylation by human liver microsomes; settings: probe bufuralol (1'-hydroxylation)
Sequence of CYP2D6 (P10635 whole entry): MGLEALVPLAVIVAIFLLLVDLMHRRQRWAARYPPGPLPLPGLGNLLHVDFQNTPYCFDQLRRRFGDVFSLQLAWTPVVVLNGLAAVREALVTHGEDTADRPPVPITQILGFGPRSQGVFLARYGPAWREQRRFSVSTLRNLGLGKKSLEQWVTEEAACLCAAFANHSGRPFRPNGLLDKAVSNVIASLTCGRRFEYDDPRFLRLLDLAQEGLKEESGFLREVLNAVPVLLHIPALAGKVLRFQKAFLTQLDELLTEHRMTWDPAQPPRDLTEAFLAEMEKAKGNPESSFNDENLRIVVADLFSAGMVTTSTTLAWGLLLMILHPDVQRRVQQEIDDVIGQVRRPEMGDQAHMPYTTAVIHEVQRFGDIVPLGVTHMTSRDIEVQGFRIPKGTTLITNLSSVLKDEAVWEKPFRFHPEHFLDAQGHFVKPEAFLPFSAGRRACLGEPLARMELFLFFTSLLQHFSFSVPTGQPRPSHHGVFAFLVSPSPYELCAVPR

T1 sequence (P10635 whole entry): as above

SMILES: COC(=O)C1=CO[C@@H](C)[C@H]2CN3CCc4c([nH]c5ccccc45)[C@@H]3C[C@H]12
- Ki (Cytochrome P450 2D6 [1]): 5.7 nM
- Ki (Cytochrome P450 2D6 [2]): 3.3 nM
- Ki (CYP2D6): 4.6 nM
